For 68 compounds, IC50 results are on record in patent publication EP3319959B1, “HETERO-HALO INHIBITORS OF HISTONE DEACETYLASE” (Alkermes, Inc., priority 2015, dated 2017).

The test system of the experiment is recombinant human HDACs. Nature of the experiment: HDAC enzymatic assay (LabChip capillary electrophoresis). It counts as biochemical. The note with it: 5 nM HDAC enzyme, 1 uM substrate, 5 hours pre-incubation, 17 hours reaction at 25°C; isoform not given. Here is the method: All recombinant human HDACs were purchased from BPS Bioscience. The substrate, FAM-TSRHK(AC)KL-CONH, was synthesized at NanoSyn. Final assay reactions contained 100 mM HEPES (pH 7.5), 50 mM KCl, 0.1% BSA, 0.01% Triton X-100, 1% DMSO, 1 uM substrate and 5 nM HDAC enzyme. Enzyme and compounds were pre-incubated at 25°C for 5 hours and reactions were initiated by addition of substrate. 10 uL reactions were incubated for 17 hours at 25°C and terminated by the addition of 40 uL of buffer containing 100 mM HEPES (pH 7.5), 0.1% BSA, 0.01% Triton X-100 and 0.05% SDS. Substrate and product peptides present in each sample were separated electrophoretically using the LabChip 3000 capillary electrophoresis instrument. Change in the relative fluorescence intensity of the substrate and product peaks reflects enzyme activity. Reaction progress was determined as the product to sum ratio (PSR): P/(S+P), where P is the peak height of the product peptide and S is the peak height of the substrate peptide. Reactions were performed in duplicate at 12 concentrations, (3X serial dilutions starting at 30 uM). IC50 values were calculated using a 4 Parameter Logistic Model.

pIC50: −log10 of the molar value. Bounds are passed on as bounds.

A word on the pIC50: it is −log10 of the IC50, conventionally taken in molar units. For the compound `Cc1cnc(C(=O)Nc2nc(-c3ccc(F)cc3)ccc2N)s1` [Compound 226], the pIC50 was 6.30 to 7.00.
As for `Nc1ccc(-c2ccc(OC(F)F)cc2)nc1NC(=O)N1Cc2nccnc2C1` [Compound 228], the pIC50 was 5.30 to 6.30.
On to `Nc1ccc(-c2ccc(OC(F)F)cc2)nc1NC(=O)N1CCCC1` [Compound 232], for which the pIC50 is 5.30 to 6.30.
In the case of `Nc1ccc(-c2ccc(F)cc2)nc1NC(=O)N1CC2CN(CC3CCOCC3)CC2C1` (centres unmarked) [Compound 235] it was less than 5.30; in that of `Nc1ccc(-c2ccc(F)cc2)nc1NC(=O)N1CC2CN(C3CCOCC3)CC2C1` (centres unmarked) [Compound 236], less than 5.30.
In the case of `CN(C1CCOC1)C1CC2CN(C(=O)Nc3nc(-c4ccc(F)cc4)ccc3N)CC2C1` (centres unmarked) [Compound 237] it was less than 5.30; in that of `Nc1ccc(-c2ccc(F)cc2)nc1NC(=O)N1C[C@@H]2[C@@H](CO)[C@@H]2C1` [Compound 238], 5.30 to 6.30; in that of `Nc1ccc(-c2ccc(F)cc2)nc1NC(=O)N1Cc2cnc(C3CCOCC3)cc2C1` [Compound 240], 6.30 to 7.00.
For `CN(C)[C@H]1[C@@H]2CN(C(=O)Nc3nc(-c4ccc(F)cc4)ccc3N)C[C@@H]21` [Compound 242], the pIC50 is less than 5.30.
Consider `CN1CC(Cn2ncc3c2CN(C(=O)Nc2nc(-c4ccc(F)cc4)ccc2N)C3)C1` [Compound 244], for which the pIC50 is 5.30 to 6.30.
As for `CN1CC(Cn2cc3c(n2)CN(C(=O)Nc2nc(-c4ccc(F)cc4)ccc2N)C3)C1` [Compound 245], the pIC50 was 6.30 to 7.00.
Regarding `CN1CC(n2ncc3c2CN(C(=O)Nc2nc(-c4ccc(F)cc4)ccc2N)C3)C1` [Compound 246], the pIC50 is less than 5.30.
As for `CN1CC(n2cc3c(n2)CN(C(=O)Nc2nc(-c4ccc(F)cc4)ccc2N)C3)C1` [Compound 247], the pIC50 was 6.30 to 7.00.
Next, `CN(C1COC1)C1CC2CN(C(=O)Nc3nc(-c4ccc(F)cc4)ccc3N)CC2C1` (centres unmarked) [Compound 248]: 5.30 to 6.30.
Next, `Nc1ccc(-c2ccc(F)cc2)nc1NC(=O)N1Cc2cccc(N3CCCC3)c2C1` [Compound 249]: less than 5.30; `Nc1cnc(-c2ccc(F)cc2)cc1NC(=O)N1Cc2cnc(N3CCC3)cc2C1` [Compound 254]: 5.30 to 6.30.
Next, `Nc1ccc(-c2ccc(F)cc2)nc1NC(=O)N1Cc2cnc(C3CC3)cc2C1` [Compound 255]: 6.30 to 7.00.
As to `CN1CC(CN2CC3CN(C(=O)Nc4nc(-c5ccc(F)cc5)ccc4N)CC3C2)C1` (centres unmarked) [Compound 256], the pIC50 is 5.30 to 6.30.
In the case of `Nc1ccc(-c2ccc(F)cc2)nc1NC(=O)N1Cc2cccc(F)c2C1` [Compound 259] it was 6.30 to 7.00; in that of `COc1cc2c(cn1)CN(C(=O)Nc1nc(-c3ccc(F)cc3)ccc1N)C2` [Compound 260], 6.30 to 7.00; in that of `Cc1cc(F)ccc1-c1ccc(N)c(NC(=O)N2Cc3cnc(CN(C)C)cc3C2)n1` [Compound 261], less than 5.30.
In the case of `CN(C1COC1)[C@H]1[C@@H]2CN(C(=O)Nc3nc(-c4ccc(F)cc4)ccc3N)C[C@@H]21` [Compound 262] it was less than 5.30; in that of `Nc1cn(-c2ccccc2)nc1NC(=O)N1Cc2ccc(CO)cc2C1` [Compound 350], 5.30 to 6.30.
In the case of `CN(C)Cc1ccc2c(c1)CN(C(=O)Nc1nn(-c3ccccc3)cc1N)C2` [Compound 351] it was 6.30 to 7.00.
`CN1CCN(c2ccc3c(c2)CN(C(=O)Nc2nn(-c4ccccc4)cc2N)C3)CC1` [Compound 352]: the pIC50 was 5.30 to 6.30.
In the case of `CN1CCN(Cc2ccc3c(c2)CN(C(=O)Nc2nn(-c4ccccc4)cc2N)C3)CC1` [Compound 353] it was 5.30 to 6.30; in that of `CN1CCC(C(=O)Nc2nn(-c3ccccc3)cc2N)CC1` [Compound 354], less than 5.30.
Next, `Nc1cn(-c2ccccc2)nc1NC(=O)N1CCN(C2COC2)CC1` [Compound 356]: less than 5.30; `Nc1cn(-c2ccccc2)nc1NC(=O)C1CCNCC1` [Compound 357]: less than 5.30; `CC(=O)N1CCC(C(=O)Nc2nn(-c3ccccc3)cc2N)CC1` [Compound 358]: less than 5.30.
Next, `Nc1cn(-c2ccccc2)nc1NC(=O)C1CCN(C2COC2)CC1` [Compound 359]: less than 5.30; `CC(=O)N1CCN(C(=O)Nc2nn(-c3ccccc3)cc2N)CC1` [Compound 360]: less than 5.30.
Turning to `CN1CCN(C(=O)Nc2nn(-c3ccccc3)cc2N)CC1` [Compound 361], the pIC50 was less than 5.30.
In the case of `CN1CC=C(c2ccc3c(c2)CN(C(=O)Nc2nc(-c4ccc(F)cc4)ccc2N)C3)CC1` [Compound 362] it was 6.30 to 7.00; in that of `COC1CCN(Cc2ccc3c(c2)CN(C(=O)Nc2nc(-c4ccc(F)cc4)ccc2N)C3)C1` (centres unmarked) [Compound 363], 6.30 to 7.00; in that of `Nc1ccc(-c2ccc(F)cc2)nc1NC(=O)N1CCC(F)(F)C1` [Compound 364], 5.30 to 6.30.
With `CN(C)Cc1ccc2c(c1)CN(C(=O)Nc1nc(-c3ccco3)ccc1N)C2` [Compound 365], the pIC50 was 6.30 to 7.00.
In the case of `CN1CCC(N2CCC(C(=O)Nc3nc(-c4ccc(F)cc4)ccc3N)CC2)CC1` [Compound 368] it was 5.30 to 6.30; in that of `Nc1ccc(-n2cccn2)nc1NC(=O)N1Cc2ccncc2C1` [Compound 369], 5.30 to 6.30; in that of `Nc1ccc(-n2cccn2)nc1NC(=O)C1CCN(Cc2ccccc2F)CC1` [Compound 370], less than 5.30.
In the case of `Nc1ccc(-c2ccco2)nc1NC(=O)N1Cc2ccncc2C1` [Compound 372] it was 5.30 to 6.30.
On to `CN1CCN(c2ccc3c(c2)CN(C(=O)Nc2nc(-c4ccc(F)cc4)ccc2N)C3)CC1` [Compound 374], for which the pIC50 was 6.30 to 7.00.
Next, `CN1CCC(COC(=O)Nc2nc(-c3cccnc3)ccc2N)CC1` [Compound 375]: less than 5.30; `CN1CC(CC(=O)Nc2nc(-c3ccc(F)cc3)ccc2N)C1` [Compound 376]: less than 5.30; `Nc1ccc(-c2ccccc2)nc1NC(=O)C1CCN(Cc2cccnc2)CC1` [Compound 377]: less than 5.30.
Turning to `Nc1ccc(-c2cccnc2)nc1NC(=O)C1CCN(Cc2ccccc2F)CC1` [Compound 378], the pIC50 was less than 5.30.
In the case of `Nc1ccc(-c2ccccc2)nc1NC(=O)C1CCN(Cc2ccccc2F)CC1` [Compound 379] it was less than 5.30; in that of `CC(=O)N1CCC(C(=O)Nc2nc(-c3ccccc3)ccc2N)CC1` [Compound 380], less than 5.30; in that of `Nc1ccc(-c2ccccc2)nc1NC(=O)C1CCN(C2COC2)CC1` [Compound 381], less than 5.30.
Next, `Nc1cn(-c2ccccc2)nc1NC(=O)N1CC2COCC2C1` (centres unmarked) [Compound 382]: less than 5.30; `CN1CCC(c2ccc3c(c2)CN(C(=O)Nc2nn(-c4ccccc4)cc2N)C3)CC1` [Compound 383]: 6.30 to 7.00.
Next, `Nc1cn(-c2ccccc2)nc1NC(=O)N1CC2CCCC2C1` (centres unmarked) [Compound 384]: less than 5.30.
On to `Nc1ccc(-c2ccc(F)cc2)nc1NC(=O)N1CC2CCCC2C1` (centres unmarked) [Compound 385], for which the pIC50 is 5.30 to 6.30.
Take `Nc1ccc(-c2ccc(F)cc2)nc1NC(=O)N1Cc2ccc(CN3CCC(F)(F)C3)cc2C1` [Compound 386]: the pIC50 is 6.30 to 7.00.
Next, `CN1CCC(c2ccc3c(c2)CN(C(=O)Nc2nc(-c4ccc(F)cc4)ccc2N)C3)CC1` [Compound 387]: 5.30 to 6.30.
For the compound `COC1CCN(C(=O)Nc2nc(-c3ccc(F)cc3)ccc2N)C1` (centres unmarked) [Compound 388], the pIC50 was 5.30 to 6.30.
`COCC1CCN(C(=O)Nc2nc(-c3ccc(F)cc3)ccc2N)C1` (centres unmarked) [Compound 389]: the pIC50 is less than 5.30.
Turning to `Nc1ccc(-c2ccc(F)cc2)nc1NC(=O)N1CCC(C(F)(F)F)C1` (centres unmarked) [Compound 390], the pIC50 is 5.30 to 6.30.
In the case of `Nc1ccc(-c2ccc(F)cc2)nc1NC(=O)N1CC2COCC2C1` (centres unmarked) [Compound 392] it was 5.30 to 6.30; in that of `COCc1ccc2c(c1)CN(C(=O)Nc1nc(-c3cccnc3)ccc1N)C2` [Compound 393], 5.30 to 6.30; in that of `CC(O)c1ccc2c(c1)CN(C(=O)Nc1nc(-c3ccc(F)cc3)ccc1N)C2` (centres unmarked) [Compound 394], 6.30 to 7.00.
Turning to `COCc1ccc2c(c1)CN(C(=O)Nc1nc(-c3ccc(F)cc3)ccc1N)C2` [Compound 396], the negative-log IC50 (pIC50) was 6.30 to 7.00.
Turning to `CN(C)Cc1ccc2c(c1)CN(C(=O)Nc1nc(-c3ccc(Cl)s3)ccc1N)C2` [Compound 401], the pIC50 was less than 5.30.
In the case of `Nc1ccc(-c2ccc(F)cc2)nc1NC(=O)C1CC2CCC(C1)O2` (centres unmarked) [Compound 406] it was less than 5.30; in that of `Nc1cn(-c2ccccc2)nc1NC(=O)N1CCC2(CCOCC2)C1` [Compound 407], less than 5.30.
In the case of `Nc1ccc(-c2ccc(F)cc2)nc1NC(=O)N1Cc2ccc(CN3CCC(C(F)(F)F)C3)cc2C1` (centres unmarked) [Compound 408] it was 6.30 to 7.00; in that of `CN(C)Cc1ccc2c(c1)CN(C(=O)Nc1nc(-c3cccs3)ccc1N)C2` [Compound 409], 6.30 to 7.00; in that of `Nc1ccc(-c2cccs2)nc1NC(=O)N1Cc2ccc(CN3CCCC3)cc2C1` [Compound 410], 6.30 to 7.00.
